The values that follow come from US20110144079A1, “ANTIMICROBIAL SYSTEM” (priority 2008, published 2011).

Molecules are shown by their SMILES.

The subject of assay [1] is P. aeruginosa PA01. As to the kind of experiment: Broth microdilution MIC/MBC. The note with it: for MBC: P. aeruginosa PA01, 99.9% killing; for MIC: P. aeruginosa PA01, 24 h at 37° C., read-out: MIC. In kind it is cell-based. Here is the method: (§1) Broth microdilution tests were performed according to NCCLS guidelines. Serial two-fold dilutions of each imidazolium salt (from an original working solution which had been 0.22 μm sterile filtered) in Mueller-Hinton Broth (MHB) (100 μl) were prepared in 96-well micro-titre plates over the range 0.0000625-1% w/v. The inoculum to be tested was prepared by adjusting the turbidity of an actively overnight growing broth culture in MHB to an optical density at 550 nm equivalent to 1×10^8 CFU/ml. The suspension was further diluted to provide a final inoculum density of 2×10^5 CFU/ml in MHB as verified by total viable count. The inoculum to be tested (100 μl, 2×10^5 CFU ml^−1) was added to each well of the microdilution trays which were incubated aerobically for 24 h at 37° C. Positive and negative growth controls were included in every assay (6 replicates). After determining the MICs, minimum bactericidal concentrations (MBCs) were determined by spreading 20 μl of suspension from wells showing no growth onto MHA plates, which were then incubated for 24 h and examined for 99.9% killing.

Assay [2] concerns E-MRSA 15. In words: Broth microdilution MIC/MBC. The class given is cell-based. The note with it: for MBC: E-MRSA 15, 99.9% killing; for MIC: E-MRSA 15, 24 h at 37° C. The method, then: as §1
The test system of assay [3] is K. aerogenes NCTC 7427. In words: Broth microdilution MIC/MBC. In kind it is cell-based. The note with it: for MBC: K. aerogenes NCTC 7427, 99.9% killing; for MIC: K. aerogenes NCTC 7427, 24 h at 37° C. The method, then:
as §1

The subject of assay [4] is E. coli NCTC 8196. In words: Broth microdilution MIC/MBC. In kind it is cell-based. To be noted: for MBC: E. coli NCTC 8196, 99.9% killing; for MIC: E. coli NCTC 8196, 24 h at 37° C. The method, then:
as §1

Assay [5] concerns S. epidermidis ATCC 12228. As to the kind of experiment: Broth microdilution MIC/MBC. To be noted: for MBC: S. epidermidis ATCC 12228, 99.9% killing; for MIC: S. epidermidis ATCC 12228, 24 h at 37° C. The class given is cell-based. Here is the method: as §1
Assay [6] has as its system P. mirabilis NCTC 12442. In words: Broth microdilution MIC/MBC. In kind it is cell-based. To be noted: for MBC: P. mirabilis NCTC 12442, 99.9% killing; for MIC: P. mirabilis NCTC 12442, 24 h at 37° C. The method, then:
as §1

Assay [7] concerns S. epidermidis ATCC 35984. In words: Broth microdilution MIC/MBC. In kind it is cell-based. The note with it: for MBC: S. epidermidis ATCC 35984, 99.9% killing; for MIC: S. epidermidis ATCC 35984, 24 h at 37° C. Here is the method:
as §1

Assay [8] concerns C. tropicalis NCTC 7393. In words: Broth microdilution MIC/MBC. The class given is cell-based. To be noted: for MBC: C. tropicalis NCTC 7393, 99.9% killing; for MIC: C. tropicalis NCTC 7393, 24 h at 37° C. Here is the method:
as §1

Assay [9] relates to S. aureus ATCC 29213. In words: Broth microdilution MIC/MBC. To be noted: for MBC: S. aureus ATCC 29213, 99.9% killing; for MIC: S. aureus ATCC 29213, 24 h at 37° C. In kind it is cell-based. Here is the method: as §1
For assay [10], the system named is B. cenocepacia J2315. In words: Broth microdilution MIC/MBC. The class given is cell-based. Here is the method:
as §1

For assay [11], the system named is MRSA. As to the kind of experiment: Broth microdilution MIC/MBC. In kind it is cell-based, methicillin-resistant S. aureus. Here is the method: as §1
Assay [12] deals with S. aureus PIII. As to the kind of experiment: Broth microdilution MIC. The class given is cell-based. The method, then:
as §1

Assay [13] has as its system B. cereus. In words: Broth microdilution MIC/MBC. To be noted: for MBC: 99.9% killing; for MIC: 24 h at 37° C. In kind it is cell-based. The method, then:
as §1

The test system of assay [14] is P. aeruginosa PA01. In words: Biofilm assay (Calgary Biofilm Device), MBEC. The class given is cell-based. To be noted: P. aeruginosa PA01 24 h biofilm, 24 h challenge. The method, then: (§2) Biofilms of each test organism were grown in the Calgary Biofilm Device (commercially available as the MBEC Assay™ for Physiology & Genetics, Innovotech Inc., Edmonton, Alberta, Canada). The device, a micro-titre plated based assay, consists of two parts; a microtitre plate containing the inoculated test medium and a polystyrene lid with 96 identical pegs on which the microbial biofilm forms under gyrorotary incubation. The biofilm assay was conducted according to the MBEC™ assay protocol as supplied by the manufacturer, with slight modifications. Inocula of each test organism were prepared in MHB as described above and adjusted to provide a final inoculum density of ˜10^7 CFU ml^−1 (as confirmed by viable count). 150 μl of the inoculated media was transferred to each well of the 96-well microtitre plate and the assay plate lid, bearing 96 pegs was placed into the microtitre plate. The MBEC assay plates were placed in a gyrorotary incubator (37° C., 95% relative humidity) for 24 h to permit growth and comparison of 24 h biofilms of each test strain. Positive and negative growth controls were included in each plate (6 replicates). Initial and 24 h planktonic viable counts were measured, as were 24 h biofilm counts, expressed as CFU peg^−1, according to manufacturers instructions. After 24 h, the peg lid of the MBEC assay plate was gently rinsed three times. After rinsing, the peg lid of the MBEC assay was transferred to a ‘challenge’ plate. Serial dilutions of each imidazolium salt were prepared in 200 μl of MHB containing various concentrations of IL in each well. Positive growth control and sterility control were included in each assay plate. […] Biofilms were dislodged into recovery media by sonication for 5 minutes and the peg lid discarded. The recovery plate is incubated overnight and visually checked after 24 h for turbidity. In addition, optical density measurements for each plate were recorded at 550 nm. Clear wells were taken as evidence of biofilm eradication and the MBEC value was assigned as the lowest concentration at which no growth was observed after 24 h incubation. Plates were incubated for a further 24 h to confirm biofilm eradication concentrations.

Assay [15] relates to E-MRSA 15. In words: Biofilm assay (Calgary Biofilm Device), MBEC. In kind it is cell-based. To be noted: E-MRSA 15 24 h biofilm, 24 h challenge. The method, then:
as §2

For assay [16], the system named is K. aerogenes NCTC 7427. As to the kind of experiment: Biofilm assay (Calgary Biofilm Device), MBEC. The class given is cell-based. To be noted: K. aerogenes NCTC 7427 24 h biofilm, 24 h challenge. Here is the method:
as §2

Assay [17] deals with E. coli NCTC 8196. In words: Biofilm assay (Calgary Biofilm Device), MBEC. The class given is cell-based. The note with it: E. coli NCTC 8196 24 h biofilm, 24 h challenge. The method, then:
as §2

Assay [18] concerns P. mirabilis NCTC 12442. In words: Biofilm assay (Calgary Biofilm Device), MBEC. In kind it is cell-based. The note with it: P. mirabilis NCTC 12442 24 h biofilm, 24 h challenge. The method, then: as §2
Assay [19] relates to B. cereus. In words: Biofilm assay (Calgary Biofilm Device), MBEC. In kind it is cell-based. To be noted: B. cereus 24 h biofilm, 24 h challenge. Here is the method:
as §2

Assay [20] concerns S. aureus PIII. In words: Biofilm assay (Calgary Biofilm Device), MBEC. The class given is cell-based. The note with it: S. aureus PIII 24 h biofilm, 24 h challenge. Here is the method: as §2
Assay [21] relates to S. epidermidis ATCC 35984. In words: Biofilm assay (Calgary Biofilm Device), MBEC. The class given is cell-based. To be noted: S. epidermidis ATCC 35984 24 h biofilm, 24 h challenge. The method, then: as §2
Assay [22] has as its system C. tropicalis NCTC 7393. As to the kind of experiment: Biofilm assay (Calgary Biofilm Device), MBEC. In kind it is cell-based. The note with it: C. tropicalis NCTC 7393 24 h biofilm, 24 h challenge. The method, then: as §2
Assay [23] relates to MRSA. In words: Zone of inhibition on MRSA-seeded agar culture plates. The class given is cell-based, methicillin-resistant S. aureus. To be noted: 40 μL of ionic liquid applied to MRSA-seeded agar culture plates. From the text: As used herein, CyMIMCI, refers to 1-alkyl-3-methyl-imidazolium chloride ionic liquids, wherein the alkyl group is a straight chain alkyl group having y carbon atoms.

Consider `CCCCCCn1cc[n+](C)c1.[Cl-]` [1-alkyl-3-methylimidazolium chlorides 6], for which the MBC in [1], in assay [2], in assay [3], in assay [4], in assay [5] and in [6] was greater than 1644 µM throughout. The minimal bactericidal concentration (MBC) in assay [7] was greater than 1644 µM; in [8] it was greater than 1644 µM; in assay [9], greater than 1644 µM; in assay [10] (B. cenocepacia J2315, 99.9% killing), greater than 1644 µM; in assay [11] (99.9% killing), greater than 1644 µM. Further, the MIC in [1], in assay [2], in assay [3], in assay [4], in assay [5] and in assay [6] was greater than 1644 µM each time. The minimal inhibitory concentration (MIC) in [7] was greater than 1644 µM; in [8], greater than 1644 µM; in assay [9], greater than 1644 µM; in assay [10] (B. cenocepacia J2315, 24 h at 37° C.), greater than 1644 µM; in assay [11] (24 h at 37° C.), greater than 1644 µM.
For the compound `CCCCCCCC[n+]1cccc2ccccc21.[Br-]` [1-alkyl-3-quinolinium bromides 8], the minimal inhibitory concentration (MIC) was 242 µM in assay [12]; 484.78 µM in assay [1]; 242 µM in [2]; 60 µM in assay [3]; 121.2 µM in [4]; 121.2 µM in [5]. Besides, the MIC is recorded as 242 µM in assay [6]; 484.78 µM in assay [13]; 121.2 µM in assay [7]; 242 µM in assay [8]; 242 µM in [9]. Moreover, the MBC was found to be 605 µM in [1]; 484 µM in [2]; 242 µM in assay [3]; 242 µM in assay [4]; 242 µM in [5]; 363 µM in assay [6]. For the same compound, the MBC was determined as 726 µM in [13], 242 µM in assay [7], 363 µM in assay [8] and 484 µM in [9]. Also, the MBEC in assay [14] was 8315 µM; in assay [15] it was 7826 µM; in [16] it was 9782 µM; in assay [17], 8315 µM; in assay [18] it was 7826 µM; in assay [19] it was 7826 µM. Also, the values for the MBEC in assay [20], in assay [21] and in assay [22] were 7826 µM, 3913 µM and 7826 µM, respectively.
For the compound `CCCCCCCCCC[n+]1cccc2ccccc21.[Br-]` [1-alkyl-3-quinolinium bromides 10], the MIC in assay [12] was determined as 111.5 µM; in assay [1], 223 µM; in assay [2] it was 55.74 µM; in assay [3] it was 55.74 µM; in assay [4] it was 55.74 µM; in assay [5], 55.74 µM. Moreover, the MIC in assay [6] worked out at 111.5 µM; in assay [13], 223 µM; in assay [7] it was 55.74 µM; in assay [8], 55.74 µM; in [9], 111.5 µM. Besides, the MBC in assay [1] worked out at 446 µM; in [2] it was 111.48 µM; in assay [3], 167.22 µM; in [4], 167.22 µM; in [5] it was 111.48 µM; in assay [6], 167.22 µM. The minimum bactericidal concentration (MBC) in [13] turned out to be 278.7 µM; in [7], 111.48 µM; in [8] it was 111.48 µM; in assay [9], 111.48 µM. For the same compound, the MBEC in assay [14] stood at 1792 µM; in [15], 1792 µM; in assay [16], 4568 µM; in assay [17] it was 3584 µM; in assay [18], 3584 µM; in assay [19], 3584 µM. For the same compound, the MBEC is 1956 µM in [20], 896 µM in assay [21] and 1792 µM in [22].
Turning to `CCCCCCCCCCCCCCCCCC[n+]1cccc2ccccc21.[Br-]` [1-alkyl-3-quinolinium bromides 18], the MIC was 209.76 µM in [12]; 419.52 µM in [1]; 209.76 µM in assay [2]; 104.88 µM in assay [3]; 104.88 µM in assay [4]; 104.88 µM in [6]. The minimal inhibitory concentration (MIC) in [13] came to 419.52 µM; in assay [7] it was 104.88 µM; in assay [8] it was 104.88 µM. In addition, the MBEC turned out to be 6712.32 µM in assay [14]; 1678.08 µM in [15]; 6712.32 µM in assay [16]; 1678.08 µM in assay [17]; 3356.16 µM in assay [18]; 3356.16 µM in [19]. Also, the MBEC in assay [20] was found to be 3356.16 µM; in assay [21] it was 1678.08 µM; in assay [22], 1678.08 µM.
Consider `CCCCCCCCCCCCCCCCn1cc[n+](C)c1.[Cl-]` [C16MIMCl], for which the “Zone Of Inhibition Radius” value in assay [23] is reported as 6 mm.
Regarding `CCCCCCCCCCCCCCCCCCn1cc[n+](C)c1.[Cl-]` [C18MIMCl], the “Zone Of Inhibition Radius” value in assay [23] is 10 mm.
